# From PMC9505425, “Targeting of the Mitochondrial TET1 Protein by Pyrrolo[3,2-b]pyrrole Chelators” (International Journal of Molecular Sciences, 2022)
# Where “and” joins values, the source holds several entries; their conditions need not be identical. Equal entries are not always repeated.
# Experiments:
# [1] = MTT cytotoxicity assay, HF-P4; format: cell-based, human; details: human, HF-P4 normal human dermal fibroblasts, repeats, read-out: Cell viability %
# Protocol: (§1) The effects of the tested compounds 1–6 on HF-P4, U-118 MG, H1299, BT-20, and Caov-3 cell lines were evaluated by the MTT assay during 48 h treatment (Table 2 and Tables S2–S31). In all tested compounds, we recognized a difference in cytotoxicity between healthy cells (HF-P4) and cancer cell lines (BT-20, Caov-3, and H-1299). […] In the case of ovarian cancer, the authors discovered oncogenic and poor prognosis roles of TET1 in epithelial ovarian carcinoma (EOC). TET1 is believed to demethylate the epigenome and activate numerous oncogenic pathways in EOC. The aforementioned study presents a new mechanism where TET1 contributes to tumor development through collaboration with CK2α [21]. The overexpression of the TET1 protein was also found in triple negative breast cancer and was associated with an activation of PI3K/mTOR pathway and decreased overall survival.
# (§2) A human dermal fibroblast cell line was used for intracellular localization and cytotoxicity assay (MTT). Human fibroblast cells HF-P4 (human fibroblasts—patient 4) are normal dermal fibroblasts, which were obtained from the residual skin of a healthy patient who underwent plastic surgery (with informed consent of the patient). HF-P4 cell lines were obtained from the Department of Plastic Surgery, Third Faculty of Medicine, Charles University and University Hospital Královské Vinohrady, Prague, Czech Republic, as described by Szabo et al., 2011, and Dvořánková et al., 2019 [88, 89], and have been processed in accordance with the relevant local ethics committee and the Declaration of Helsinki protection of patients’ rights and benefits with written and signed informed consent of each patient. Cells were cultivated under standard conditions in Dulbecco’s modified Eagle’s medium (ATCC, Manassas, VA, USA), supplemented with 10% FBS and streptomycin (100 μg/mL) at 37 °C at a 5% CO2 atmosphere.
# (§3) For the cytotoxicity assay, we used the following cell lines: human glioblastoma cell line U118-MG, human mammary gland/breast cell line BT-20, human ovary adenocarcinoma cell line Caov-3, and non-small-cell lung carcinoma H-1299. As previously mentioned, these cell lines contain a high level of the TET1 protein, which corresponds to a lower overall survival. In addition to these cell cultures, we used the human dermal fibroblast cell line HF-P4 as a healthy control. Determination of cytotoxicity was performed using the MTT [3-(4,5-dimethylthiazol-2-yl)-2,5-diphenyltetrazolium bromide] colorimetric assay. Viable cells from each cell line were cultured in 96-well plates (VWR, Stříbrná Skalice, Czech Republic) at a density of 1.0 × 10^5 cells per well and allowed to grow for 24 h in 200 μL of recommended medium. After a 1-day incubation, the medium was replaced with solutions of compounds 1–6 at concentration ranges of 0.1–20 μM. Each concentration was measured four times within one test, and the entire test was repeated three times. Tested compounds 1–6 were dissolved in DMSO and then diluted with corresponding medium to a final volume of 200 μL (maximum 1% DMSO). After 48 h exposure, cells were treated with 175 μL of MTT solution (P-LAB, Prague, Czech Republic) for 2 h. In the next step, MTT solution was removed, and 125 μL of DMSO (Penta, Prague, Czech Republic) was added to solubilize dark crystals of formazan formed in intact cells, and absorbance was measured at 570 nm by the enzyme-linked immunoabsorbent assay reader Infinite® 200 PRO (Tecan, Männedorf, Switzerland). The final DMSO concentration was smaller than 1% (v/v). The absorbance of untreated cells was considered 100%, and IC50 values were calculated by the GraphPad Prism 8 software. As a parameter for cytotoxicity, we used a concentration that inhibits 50% of cell growth (IC50).
# [2] = system: HF-P4 cells; test: MTT cytotoxicity assay, HF-P4; format: cell-based, human; details: 48 h; for Cell viability %: repeats
# Protocol: as §1, §2, §3
# [3] = system: H-1299 cells; test: MTT cytotoxicity assay, H-1299; format: cell-based, human
# Protocol: as §1
# A human glioblastoma cell line (U118-MG) and a human non-small-cell lung carcinoma cell line (H1299) were used for the cytotoxicity assay (MTT). Both cell lines were generously supplied by Dr. M. Masařik, PhD, Department of Pathological physiology, Masaryk University, Czech Republic. U118-MG cells were cultivated under standard conditions in Dulbecco’s modified Eagle’s medium (ATCC, Manassas, VA, USA) supplemented with 10% FBS and streptomycin (100 μg/mL) at 37 °C at a 5% CO2 atmosphere. H1299 cells were cultivated under standard conditions in RPMI 1640 (BioTech, Prague, Czech Republic) medium supplemented with 10% FBS and streptomycin (100 μg/mL) at 37 °C at a 5% CO2 atmosphere.
# as §3
# [4] = system: Caov-3 cells; test: MTT cytotoxicity assay, Caov-3; format: cell-based, human
# Protocol: as §1
# The human ovary adenocarcinoma cell line (Caov-3), purchased from ATCC (Caov-3 (ATCC® HTB-75™), Manassas, VA, USA), was used for the cytotoxicity assay (MTT). Caov-3 cells were cultivated under standard conditions in Dulbecco’s modified Eagle’s medium (ATCC, Manassas, VA, USA) supplemented with 10% FBS and streptomycin (100 μg/mL) at 37 °C at a 5% CO2 atmosphere.
# as §3
smiles,measurement,setting,value
Cc1ccc(-n2c(-c3ccc(C(=O)N/N=C/c4ccc(O)cc4O)cc3)cc3c2cc(-c2ccc(C(=O)N/N=C/c4ccc(O)cc4O)cc2)n3-c2ccc(C)cc2)cc1 [Compound 4],melting point,,328 to 329 °C
same,"viability at 48 h, 0.1 µM","[1]; HF-P4, 100 nM",102%
same,"viability at 48 h, 0.5 µM","[1]; HF-P4, 500 nM",94.9%
same,"viability at 48 h, 0.75 µM","[1]; HF-P4, 750 nM",84.8%
same,"viability at 48 h, 1 µM","[1]; HF-P4, 1 uM",86%
same,"viability at 48 h, 2.5 µM","[1]; HF-P4, 2.5 uM",74.5%
same,"viability at 48 h, 5 µM","[1]; HF-P4, 5 uM",74.9%
same,"viability at 48 h, 7.5 µM","[1]; HF-P4, 7.5 uM",66.9%
same,"viability at 48 h, 10 µM","[1]; HF-P4, 10 uM",59.9%
same,"viability at 48 h, 15 µM","[1]; HF-P4, 15 uM",45.1%
same,"viability at 48 h, 20 µM","[1]; HF-P4, 20 uM",36.4%
same,Cell viability %,"[2]; HF-P4, 100 nM, 0.1 µM",100.6236% and 114.7117%
same,Cell viability %,"[2]; HF-P4, 500 nM, 0.5 µM",87.47% and 94.87%
same,Cell viability %,"[2]; HF-P4, 750 nM, 0.75 µM",85.1% and 92.38%
same,Cell viability %,"[2]; HF-P4, 1 uM, 1 µM",81.67% and 86.71%
same,Cell viability %,"[2]; HF-P4, 2.5 uM, 2.5 µM",86.63% and 76.23%
same,Cell viability %,"[2]; HF-P4, 5 uM, 5 µM",73.34% and 61.32%
same,Cell viability %,"[2]; HF-P4, 7.5 uM, 7.5 µM",70.27% and 58.24%
same,Cell viability %,"[2]; HF-P4, 10 uM, 10 µM",62.49% and 65.68%
same,Cell viability %,"[2]; HF-P4, 15 uM, 15 µM",53.94% and 54.86%
same,Cell viability %,"[2]; HF-P4, 20 uM, 20 µM",38.68% and 44.63%
same,IC50,"[2]; Homo sapiens, MTT",13.1 µM
same,Cell viability %,"[3]; H-1299, 100 nM, 48 h, repeats, 0.1 µM",109.0835% and 92.98%
same,Cell viability %,"[3]; H-1299, 500 nM, 48 h, repeats, 0.5 µM",110.8313% and 69.08% and 86.72%
same,Cell viability %,"[3]; H-1299, 750 nM, 48 h, repeats, 0.75 µM",86.2% and 81.89%
same,Cell viability %,"[3]; H-1299, 1 uM, 48 h, repeats, 1 µM",88.02% and 73.99% and 66.83%
same,Cell viability %,"[3]; H-1299, 2.5 uM, 48 h, repeats, 2.5 µM",77.91% and 68.92%
same,Cell viability %,"[3]; H-1299, 5 uM, 48 h, repeats, 5 µM",68.74% and 52.75%
same,Cell viability %,"[3]; H-1299, 7.5 uM, 48 h, repeats, 7.5 µM",38.28% and 33.07%
same,Cell viability %,"[3]; H-1299, 10 uM, 48 h, repeats, 10 µM",21.64% and 18.84%
same,Cell viability %,"[3]; H-1299, 15 uM, 48 h, repeats, 15 µM",10.46% and 11.78%
same,Cell viability %,"[3]; H-1299, 20 uM, 48 h, repeats, 20 µM",7.89% and 6.315%
same,viability at 0.1 µM,"[3]; Homo sapiens, NCI-H1299, 48 h, H-1299, 100 nM, repeats, read-out: Cell viability %",110%
same,viability at 0.75 µM,"[3]; Homo sapiens, NCI-H1299, 48 h, H-1299, 750 nM, repeats, read-out: Cell viability %",86.1%
same,viability at 2.5 µM,"[3]; Homo sapiens, NCI-H1299, 48 h, H-1299, 2.5 uM, repeats, read-out: Cell viability %",77.6%
same,viability at 5 µM,"[3]; Homo sapiens, NCI-H1299, 48 h, H-1299, 5 uM, repeats, read-out: Cell viability %",66.7%
same,viability at 7.5 µM,"[3]; Homo sapiens, NCI-H1299, 48 h, H-1299, 7.5 uM, repeats, read-out: Cell viability %",35.8%
same,viability at 10 µM,"[3]; Homo sapiens, NCI-H1299, 48 h, H-1299, 10 uM, repeats, read-out: Cell viability %",14.8%
same,viability at 15 µM,"[3]; Homo sapiens, NCI-H1299, 48 h, H-1299, 15 uM, repeats, read-out: Cell viability %",11.1%
same,viability at 20 µM,"[3]; Homo sapiens, NCI-H1299, 48 h, H-1299, 20 uM, repeats, read-out: Cell viability %",7.35%
same,IC50,"[3]; Homo sapiens, NCI-H1299, MTT, 48 h",5.75 µM
same,Cell viability %,"[4]; Caov-3, 100 nM, 48 h, repeats, 0.1 µM",84.95% and 82.17%
same,Cell viability %,"[4]; Caov-3, 500 nM, 48 h, repeats, 0.5 µM",102.391% and 108.5681%
same,Cell viability %,"[4]; Caov-3, 750 nM, 48 h, repeats, 0.75 µM",102.8833% and 94.08%
same,Cell viability %,"[4]; Caov-3, 1 uM, 48 h, repeats, 1 µM",98.73% and 92.87%
same,Cell viability %,"[4]; Caov-3, 2.5 uM, 48 h, repeats, 2.5 µM",74.65% and 110.1266% and 69.7%
same,Cell viability %,"[4]; Caov-3, 5 uM, 48 h, repeats, 5 µM",50.71% and 80.94% and 55.26%
same,Cell viability %,"[4]; Caov-3, 7.5 uM, 48 h, repeats, 7.5 µM",53.66% and 54.17%
same,Cell viability %,"[4]; Caov-3, 10 uM, 48 h, repeats, 10 µM",41.07% and 42.6107%
same,Cell viability %,"[4]; Caov-3, 15 uM, 48 h, repeats, 15 µM",17.58% and 17.6%
same,Cell viability %,"[4]; Caov-3, 20 uM, 48 h, repeats, 20 µM",14.91% and 14.49%
same,viability at 0.1 µM,"[4]; Homo sapiens, Caov-3, 48 h, Caov-3, 100 nM, repeats, read-out: Cell viability %",68.6%
same,viability at 0.5 µM,"[4]; Homo sapiens, Caov-3, 48 h, Caov-3, 500 nM, repeats, read-out: Cell viability %",104%
same,viability at 0.75 µM,"[4]; Homo sapiens, Caov-3, 48 h, Caov-3, 750 nM, repeats, read-out: Cell viability %",92.8%
same,viability at 1 µM,"[4]; Homo sapiens, Caov-3, 48 h, Caov-3, 1 uM, repeats, read-out: Cell viability %",101%
same,viability at 7.5 µM,"[4]; Homo sapiens, Caov-3, 48 h, Caov-3, 7.5 uM, repeats, read-out: Cell viability %",53.1%
same,viability at 10 µM,"[4]; Homo sapiens, Caov-3, 48 h, Caov-3, 10 uM, repeats, read-out: Cell viability %",42.9%
same,viability at 15 µM,"[4]; Homo sapiens, Caov-3, 48 h, Caov-3, 15 uM, repeats, read-out: Cell viability %",19.5%
same,viability at 20 µM,"[4]; Homo sapiens, Caov-3, 48 h, Caov-3, 20 uM, repeats, read-out: Cell viability %",14.3%
same,IC50,"[4]; Homo sapiens, Caov-3, MTT, 48 h",9.13 µM
